Entries after “also recorded” stand apart in the source; their conditions may differ.
Columns and labels:
HOIP RBR domain = target: T1, HOIP RBR domain (Homo sapiens, UniProt Q96EP0); experiment: In vitro polyubiquitination assay; type: biochemical; conditions: HOIP RBR preincubated with compound (200 μM) overnight; E2 UbcH7 or UbcH5c; vs DMSO
T1 construct: made in house; host or cells: E. coli BL21-GOLD(DE3)
T1 sequence (Q96EP0 697-1072): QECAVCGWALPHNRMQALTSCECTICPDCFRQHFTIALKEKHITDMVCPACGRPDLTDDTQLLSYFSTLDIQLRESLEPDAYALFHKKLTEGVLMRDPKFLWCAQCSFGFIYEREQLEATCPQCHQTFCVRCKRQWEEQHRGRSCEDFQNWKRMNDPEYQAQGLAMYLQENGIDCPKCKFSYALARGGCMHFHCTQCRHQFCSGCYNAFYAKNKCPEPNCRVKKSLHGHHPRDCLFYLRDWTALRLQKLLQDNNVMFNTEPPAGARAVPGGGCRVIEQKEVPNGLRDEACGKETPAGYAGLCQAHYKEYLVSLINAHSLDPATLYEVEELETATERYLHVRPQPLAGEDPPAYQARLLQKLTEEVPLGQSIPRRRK
Procedure: 4.3 Polyubiquitination assay
The ubiquitination assay was essentially carried out as previously described.12 The HOIP RBR domain was pre-incubated with compounds (5) or (6), or DMSO in 50 mM HEPES, 150 mM NaCl, pH 7.5 buffer at 23 °C with gentle shaking for overnight (20-24 h). E1, E2 (UbcH7 or UbcH5c), ubiquitin, and MgCl2 were added to each vial, and aliquots of 15 µL were withdrawn to mark time zero. ATP was then added and aliquots of 15 µL were withdrawn after 5, 15, 30, and 60 min incubation. Final concentrations: E1 (1 µM), E2 (5 µM), E3 (5 µM), compounds (200 µM), DMSO (1%), ubiquitin (40 µM), MgCl2 (20 mM), ATP (10 mM); reaction volume 100 µL. The aliquots were analyzed by SDS PAGE (Figure 4A and Supplementary Figure S9) as described below (section

TRMT61A = target: T2, TRMT61A (Homo sapiens, UniProt Q96FX7); experiment: ABPP quantitative MS, HEK293T; type: cell-based; conditions: 30 μM (11a) 7 h vs DMSO, then 3 μM (15) 2 h
T2 construct: endogenous in cells; host or cells: HEK293T
Procedure: (§1) control and cells treated with control compounds (11i) and (17) at 30 µM). HOIP RBR wild type […]
(§2) nm, indicating low to no labelling by (11a), and a dominant signal from the 800 channel (green).
(§3) C = HOIP RBR control (0.5 µg).
(§4) 5.2 Activity-based protein profiling – Enrichment and LC-MS
(§5) Cell culture and transfection, compound treatment, ha rvest and lysis
(§6) HEK293T cells were cultured and transfected as describ ed in section 4.8 above. MCF7 cells were seeded in 100 mm Petri dishes at 6 × 10^5 cells/dish and cultured overnight at 37 °C as described in section 4.8 above. Both cell types were treated with inhibitor (11a) (30 µM final concentration) or DMSO as described above, incubating for 7 h at 37 °C, followed by addition of clickable probe (15) (3 µM final concentration) and incubation for an additional 2 h. The cells were then harvested and lysed (50 mM Tris-HCl, pH 7.5, 1.5 mM MgCl2, 150 mM NaCl, 5% glycerol, 0.8% v/v IGEPAL-CA630, 25 mM NaF, 1 mM Na3VO4, complete protease inhibitor), and the protein concentration was determined by the BCA assay as described in section 4.7 above.
(§7) Enrichment of TCO-labelled proteins
(§8) Similar to a previously described protocol,22 tetrazine beads were generated by incubating high capacity neutravidin beads (500 µL; Thermo Scientific) with 0.1 µmol tetrazine-PEG4-biotin (Jena Bioscience) in PBS buffer over night at 4 °C, followed by blocking with 5 µL 100 mM biotin in DMSO for 30 minutes at 4 °C. The beads were washed 3× with buffer (50 mM Tris-HCl pH 7.4, 5% glycerol, 1.5 mM MgCl2, 150 mM NaCl, 1 mM Na3VO3, 5 mM NaF) supplemented with 0.4% IGEPAL CA-630 and adjusted to a 5% v/v slurry.
(§9) Lysate with a protein concentration of approx. 2 mg/mL (500 µL) were added to the TCO beads (35 µL) on a 96-well filter plate (Porvair, Dunn #240002) and incubated at 4°C for 2 h. After incubation, beads were washed using a vacuum manifold with 5 mL wash buffer 1 (WB1) (50 mM […]
(§10) (50 mM HEPES pH 8.5, 2 M urea), and 5 mL WB4 (50 mM HEPES pH 8.5). Proteins were then eluted by on bead digestion: 60 µL elution buffer (50 mM HEPES pH 8.5, 5 mM Tris-(2-carboxyethyl)phosphine, 15 mM chloroacetamide, 0.004 µg LysC/ µL (Wako chemicals), 0.004 µg trypsin/µL (Promega)) were added to the washed beads and incubated over night at room temperature. Eluates were collected by centrifugation, beads incubated with an additional 60 µL WB4, eluted and both eluates were combined and lyophilized. […]
(§11) proportional to the number of ions; this measure is referred to as ion area.24 Spectra matching to peptides were filtered according to the following criteria: mascot ion score >15, signal-to-background of the precursor ion >4, and signal -to-interference >0.5. Fold-changes were corrected for isotope purity and adjusted for interference caused by co-eluting nearly isobaric peaks.25 Protein quantification was derived from individual spectra matching to distinct peptides by using a sum-based bootstrap algorithm; 95% confidence intervals were calculated for all protein fold-changes that were quantified with more than three spectra.23 Relative protein abundance s were generated on the basis of MS1 abundances .26 Briefly, XIC peaks were matched to identified peptides. […] These values were then summed, and the mean was calculated.
(§12) In cases where fewer than 3 sequences were associated, the mean was calculated using XIC intensities from either one or two sequences.
(§13) Proteins were filtered for >1 quantified spectra matches (qusm). Residual binding was calculated […]

[1] = target: T3, RNF31 (E3 ubiquitin-protein ligase RNF31) (Homo sapiens, UniProt Q96EP0); experiment: ABPP quantitative MS, HEK293T; type: cell-based; conditions: 30 μM (11a) 7 h vs DMSO, then 3 μM (15) 2 h
T3 construct: expressed in transfected cells; host or cells: HEK293T, transient, modified pcDNA3.1(+)
Procedure: as §1, §2, §3, §4, §5, §6, §7, §8, §9, §10, §11, §12, §13

NUDT8 = target: T4, NUDT8 (Homo sapiens, UniProt Q8WV74); experiment: ABPP quantitative MS, HEK293T; type: cell-based; conditions: 30 μM (11a) 7 h vs DMSO, then 3 μM (15) 2 h
T4 construct: endogenous in cells; host or cells: HEK293T
Procedure: as §1, §2, §3, §4, §5, §6, §7, §8, §9, §10, §11, §12, §13

ALDH6A1 = target: T5, ALDH6A1 (Homo sapiens, UniProt Q02252); experiment: ABPP quantitative MS, HEK293T; type: cell-based; conditions: 30 μM (11a) 7 h vs DMSO, then 3 μM (15) 2 h
T5 construct: endogenous in cells; host or cells: HEK293T (A21); MCF7 (A27)
Procedure: as §1, §2, §3, §4, §5, §6, §7, §8, §9, §10, §11, §12, §13

[2] = target: T6, IRAK4 (Interleukin-1 receptor-associated kinase 4) (Homo sapiens, UniProt Q9NWZ3); experiment: ABPP quantitative MS, HEK293T; type: cell-based; conditions: 30 μM (11a) 7 h vs DMSO, then 3 μM (15) 2 h
T6 construct: endogenous in cells; host or cells: HEK293T (transfected with 3×FLAG HOIP RBR only)
Procedure: as §1, §2, §3, §4, §5, §6, §7, §8, §9, §10, §11, §12, §13

T2 sequence (Q96FX7 whole entry): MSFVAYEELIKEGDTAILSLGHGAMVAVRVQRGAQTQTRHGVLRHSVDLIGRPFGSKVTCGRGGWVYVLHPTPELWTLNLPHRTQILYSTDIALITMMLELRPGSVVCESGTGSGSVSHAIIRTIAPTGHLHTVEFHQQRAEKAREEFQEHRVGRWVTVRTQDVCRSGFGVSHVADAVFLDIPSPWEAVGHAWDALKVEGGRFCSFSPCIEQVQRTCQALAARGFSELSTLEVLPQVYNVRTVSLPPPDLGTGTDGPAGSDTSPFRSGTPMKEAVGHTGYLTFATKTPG
T6 sequence (Q9NWZ3 whole entry): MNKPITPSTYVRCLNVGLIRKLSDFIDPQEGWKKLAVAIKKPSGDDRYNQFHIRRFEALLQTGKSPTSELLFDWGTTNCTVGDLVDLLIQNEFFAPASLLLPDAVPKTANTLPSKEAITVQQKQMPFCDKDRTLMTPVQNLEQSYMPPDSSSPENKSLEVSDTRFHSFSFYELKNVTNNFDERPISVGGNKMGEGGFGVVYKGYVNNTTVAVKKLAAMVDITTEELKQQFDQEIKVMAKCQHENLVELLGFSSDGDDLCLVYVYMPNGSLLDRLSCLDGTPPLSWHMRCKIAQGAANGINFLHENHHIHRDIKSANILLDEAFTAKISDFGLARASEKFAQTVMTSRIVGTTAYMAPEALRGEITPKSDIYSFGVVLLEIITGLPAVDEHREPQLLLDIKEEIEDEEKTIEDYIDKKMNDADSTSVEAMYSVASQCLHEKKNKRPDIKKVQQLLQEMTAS
T4 sequence (Q8WV74 whole entry): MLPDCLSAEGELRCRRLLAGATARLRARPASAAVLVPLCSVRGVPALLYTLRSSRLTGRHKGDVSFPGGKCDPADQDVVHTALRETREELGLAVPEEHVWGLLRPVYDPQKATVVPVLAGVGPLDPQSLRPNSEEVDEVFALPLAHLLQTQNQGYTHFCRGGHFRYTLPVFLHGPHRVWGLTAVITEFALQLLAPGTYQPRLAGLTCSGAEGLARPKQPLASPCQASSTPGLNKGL
T5 sequence (Q02252 34-535): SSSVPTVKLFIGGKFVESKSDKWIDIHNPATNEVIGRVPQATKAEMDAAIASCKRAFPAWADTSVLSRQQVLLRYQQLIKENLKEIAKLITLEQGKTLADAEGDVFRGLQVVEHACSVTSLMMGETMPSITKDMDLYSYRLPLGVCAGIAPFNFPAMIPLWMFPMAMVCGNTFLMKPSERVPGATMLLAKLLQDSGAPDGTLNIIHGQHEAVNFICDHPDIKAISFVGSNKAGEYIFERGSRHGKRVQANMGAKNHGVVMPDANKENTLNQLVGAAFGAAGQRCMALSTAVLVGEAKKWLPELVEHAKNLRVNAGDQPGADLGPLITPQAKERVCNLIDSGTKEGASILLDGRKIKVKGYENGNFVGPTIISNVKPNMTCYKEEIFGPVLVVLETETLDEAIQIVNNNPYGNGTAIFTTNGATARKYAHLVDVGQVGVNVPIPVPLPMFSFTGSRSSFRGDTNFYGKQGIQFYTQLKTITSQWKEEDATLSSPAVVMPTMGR

## COC(=O)/C=C/CNC(=O)c1cc2c([nH]c1=O)CCC2 [Compound 5]
HOIP RBR domain
  polyubiquitin chain formation: fully abolished chain formation; also recorded: complete inhibition of polyubiquitin chain formation

## COC(=O)/C=C/CNC(=O)c1cc2c([nH]c1=O)CCCC2 [Compound 11a]
TRMT61A
  ratio: mean ratio between control and competition samples, TRMT61A: -1.293 log2
[1]
  ratio: mean ratio between control and competition samples, RNF31: -2.293 log2
NUDT8
  ratio: mean ratio between control and competition samples, NUDT8: -1.172 log2
ALDH6A1
  ratio: mean ratio between control and competition samples, ALDH6A1: -1.278 log2
[2]
  ratio: mean ratio between control and competition samples, IRAK4: -1.675 log2

Source: article PMC6383986, “Fragment-Based Covalent Ligand Screening Enables Rapid Discovery of Inhibitors for the RBR E3 Ubiquitin Ligase HOIP” (Journal of the American Chemical Society, 2019)
